Test [1] has as its system HCT116 p53+/+ colon cancer cells. The test can be described thus: MTT cytotoxicity assay, HCT116 p53+/+. In kind it is cell-based. The note with it: MTT, 3 days; read-out: IC50 HCT116 p53+/+ colon cancer cells. On the procedure:
(§1) Cell cultures and cytotoxicity assays have been used. Celastrol was dissolved in DMSO at a final concentration of 100 mmol/L and stored at −20° C. Cytotoxicity was assessed using the 3-(4,5-dimethylthiazol-2-yl)-2,5-diphenyltetrazolium bromide assay. 4000 cells from HCT116 p53^+/+ or p53^−/− colon cancer cells and DLD-1 Bax-Bak^+/+ or Bax-Bak^−/− colon cancer cells were seeded on 96-well plates per well. […] Subsequently, 10 μL of MTT reagents were added to each well and incubated at 37° C. for 4 hours followed by the addition of 100 μL solubilization buffer (10% SDS in 0.01 mol/L HCl) and overnight incubation. […] The percentage of cell viability was calculated using the following formula: Cell viability (%)=Cells number treated/Cells number DMSO control×100. Data were obtained from three independent experiments.
For orientation: Tetrazolium dyes change colour on reduction, which living cells bring about.

The test system of test [2] is HCT116 p53-/- colon cancer cells. Briefly: MTT cytotoxicity assay, HCT116 p53-/-. In kind it is cell-based. The procedure:
as §1

The subject of test [3] is DLD-1 Bax-Bak+/+ colon cancer cells. Briefly: MTT cytotoxicity assay, DLD-1 Bax-Bak+/+. In kind it is cell-based. Particulars: MTT, 3 days. The procedure:
as §1

The subject of test [4] is DLD-1 Bax-Bak-/- colon cancer cells. The test can be described thus: MTT cytotoxicity assay, DLD-1 Bax-Bak-/-. In kind it is cell-based. The procedure:
as §1

Test [5] deals with A2780 (Ovary) cisplatin sensitive cancer cells. The test can be described thus: MTT cytotoxicity assay, A2780 cisplatin sensitive. In kind it is cell-based, human. Particulars: MTT, 3 days; read-out: IC50 A2780 (Ovary) (Cisplatin sensitive). The procedure:
(§2) Cell cultures and cytotoxicity assays have been used. Celastrol was dissolved in DMSO at a final concentration of 100 mmol/L and stored at −20° C. Cytotoxicity was assessed using the 3-(4,5-dimethylthiazol-2-yl)-2,5-diphenyltetrazolium bromide assay. 4000 cells from A2780 cisplatin sensitive/resistant ovarian cancer cells or SGC-7901 cisplatin sensitive/resistant gastric cancer cells were seeded on 96-well plates per well. After overnight pre-incubation, the cells were exposed to different concentrations of celastrol (0.039-100 μmol/L) or cisplatin for 3 days. Subsequently, 10 μL of MTT reagents were added to each well and incubated at 37° C. for 4 hours followed by the addition of 100 μL solubilization buffer (10% SDS in 0.01 mol/L HCl) and overnight incubation. Absorbance at 585 nm was determined from each well the next day. The percentage of cell viability was calculated using the following formula: Cell viability (%)=Cells number treated/Cells number DMSO control×100. Data were obtained from three independent experiments.

Test [6] has as its system A2780 (Ovary) cisplatin resistant cancer cells. The test can be described thus: MTT cytotoxicity assay, A2780 cisplatin resistant. In kind it is cell-based, human. On the procedure:
as §2

For test [7], the system named is SGC-7901 (Gastric) cisplatin sensitive cancer cells. Briefly: MTT cytotoxicity assay, SGC-7901 cisplatin sensitive. In kind it is cell-based, human. The note with it: MTT, 3 days; read-out: IC50 SGC-7901 (Gastric) (Cisplatin sensitive). The procedure:
as §2

For test [8], the system named is SGC-7901 (Gastric) cisplatin resistant cancer cells. Briefly: MTT cytotoxicity assay, SGC-7901 cisplatin resistant. In kind it is cell-based, human. On the procedure:
as §2

SMILES strings stand for the structures.

For `N.N.[Cl][Pt][Cl]` [Cisplatin, cisplatin], the IC50 in test [1] was found to be 190 nM; in test [2] (MTT, 3 days, read-out: IC50 HCT116 p53-/- colon cancer cells), 17.6 µM; in test [5], 1240 nM; in test [6] (MTT, 3 days, read-out: IC50 A2780 (Ovary) (Cisplatin resistant)) it was 18.5 µM; in test [7], 1260 nM; in test [8] (MTT, 3 days, read-out: IC50 SGC-7901 (Gastric) (Cisplatin resistant)) it was 6.19 µM. Moreover, the “Resistant Factor” value in test [2] (IC50 HCT116 p53-/- divided by IC50 HCT116 p53+/+) is 92.37; in test [4] (IC50 DLD-1 Bax-Bak-/- divided by IC50 DLD-1 Bax-Bak+/+), 1.84; in test [6] (A2780 cisplatin resistant versus cisplatin sensitive) it was 14.92; in test [8] (SGC-7901 cisplatin resistant versus cisplatin sensitive) it was 4.9. In test [3], the “IC50 DLD-1 Bax-Bak+/+ colon cancer cells” value worked out at 1994 ng/mL. In addition, in test [4] (MTT, 3 days), the “IC50 DLD-1 Bax-Bak-/- colon cancer cells” value is given as 3678 ng/mL.
